Test results published in patent US11597724B2, “Herbicidally active 3-phenylisoxazoline-5-carboxamides of tetrahydro and dihydrofuran carboxylic acids and esters” (Bayer Aktiengesellschaft, priority 2017, dated 2023).

Experiments:
Assay type in all cases: in vivo
Amaranthus retroflexus = experiment: Post-emergence herbicidal activity against AMARE; conditions: dosage 320 g/ha, rated about 3 weeks after treatment
Procedure: (§1) AMARE: Amaranthus retroflexus AVEFA: Avena fatua 2. Post-Emergence Herbicidal Action and Crop Plant Compatibility Seeds of monocotyledonous and dicotyledonous weeds and crop plants are placed in sandy loam in plastic or wood-fiber pots, covered with soil and cultivated in a greenhouse under controlled growth conditions. 2 to 3 weeks after sowing, the test plants are treated at the one-leaf stage. The compounds of the invention, formulated in the form of wettable powders (WP) or as emulsion concentrates (EC), are then sprayed onto the green parts of the plants as aqueous suspension or emulsion with addition of 0.5% additive at a water application rate of 600 l/ha (converted). After the test plants had been kept in the greenhouse under optimum growth conditions for about 3 weeks, the activity of the preparations is rated visually in comparison to untreated controls. For example, 100% activity=the plants have died, 0% activity=like control plants.

Alopecurus myosuroides = experiment: Post-emergence herbicidal activity against ALOMY; conditions: dosage 320 g/ha, rated about 3 weeks after treatment
Procedure: as §1, with “ABUTH: Abutilon theophrasti ALOMY: Alopecurus myosuroides” for “AMARE: Amaranthus retroflexus AVEFA: Avena fatua”

Avena fatua = experiment: Post-emergence herbicidal activity against AVEFA; conditions: dosage 320 g/ha, rated about 3 weeks after treatment
Procedure: as §1

Hordeum murinum = experiment: Post-emergence herbicidal activity against HORMU; conditions: dosage 320 g/ha
Procedure: as §1, with “ECHCG: Echinochloa crus-galli HORMU: Hordeum murinum” for “AMARE: Amaranthus retroflexus AVEFA: Avena fatua”

Stellaria media = experiment: Post-emergence herbicidal activity against STEME; conditions: dosage 320 g/ha, rated about 3 weeks after treatment
Procedure: as §1, with “STEME: Stellaria media VERPE: Veronica persica” for “AMARE: Amaranthus retroflexus AVEFA: Avena fatua”

Viola tricolor = experiment: Post-emergence herbicidal activity against VIOTR; conditions: dosage 320 g/ha, rated about 3 weeks after treatment
Procedure: as §1, with “VIOTR: Viola tricolor” for “AMARE: Amaranthus retroflexus AVEFA: Avena fatua”

Setaria viridis = experiment: Post-emergence herbicidal activity against SETVI; conditions: dosage 320 g/ha, rated about 3 weeks after treatment
Procedure: as §1, with “POLCO: Polygonum convolvulus SETVI: Setaria viridis” for “AMARE: Amaranthus retroflexus AVEFA: Avena fatua”

Lolium rigidum = experiment: Post-emergence herbicidal activity against LOLRI; conditions: dosage 320 g/ha, rated about 3 weeks after treatment
Procedure: as §1, with “LOLRI: Lolium rigidum PHBPU: Pharbitis purpurea” for “AMARE: Amaranthus retroflexus AVEFA: Avena fatua”

Pharbitis purpurea = experiment: Post-emergence herbicidal activity against PHBPU; conditions: dosage 320 g/ha, rated about 3 weeks after treatment
Procedure: as §1, with “LOLRI: Lolium rigidum PHBPU: Pharbitis purpurea” for “AMARE: Amaranthus retroflexus AVEFA: Avena fatua”

Echinochloa crus-galli = experiment: Post-emergence herbicidal activity against ECHCG; conditions: dosage 320 g/ha, rated about 3 weeks after treatment
Procedure: as §1, with “ECHCG: Echinochloa crus-galli HORMU: Hordeum murinum” for “AMARE: Amaranthus retroflexus AVEFA: Avena fatua”

Veronica persica = experiment: Post-emergence herbicidal activity against VERPE; conditions: dosage 320 g/ha
Procedure: as §1, with “STEME: Stellaria media VERPE: Veronica persica” for “AMARE: Amaranthus retroflexus AVEFA: Avena fatua”

Abutilon theophrasti = experiment: Post-emergence herbicidal activity against ABUTH; conditions: dosage 320 g/ha, rated about 3 weeks after treatment
Procedure: as §1, with “ABUTH: Abutilon theophrasti ALOMY: Alopecurus myosuroides” for “AMARE: Amaranthus retroflexus AVEFA: Avena fatua”

Polygonum convolvulus = experiment: Post-emergence herbicidal activity against POLCO; conditions: dosage 320 g/ha, rated about 3 weeks after treatment
Procedure: as §1, with “POLCO: Polygonum convolvulus SETVI: Setaria viridis” for “AMARE: Amaranthus retroflexus AVEFA: Avena fatua”

CC1(C(=O)NC2COC(C(=O)OCc3cccc(F)c3)C2)CC(c2cc(F)cc(F)c2)=NO1 (mixture of isomers) [I-53]
90%: Post-emergence herbicidal activity against AMARE in % (Amaranthus retroflexus) | Post-emergence herbicidal activity against ALOMY in % (Alopecurus myosuroides) | Post-emergence herbicidal activity against AVEFA in % (Avena fatua) | Post-emergence herbicidal activity against HORMU in % (Hordeum murinum) | Post-emergence herbicidal activity against STEME in % (Stellaria media) | Post-emergence herbicidal activity against VIOTR in % (Viola tricolor) | Post-emergence herbicidal activity against SETVI in % (Setaria viridis) | Post-emergence herbicidal activity against LOLRI in % (Lolium rigidum) | Post-emergence herbicidal activity against PHBPU in % (Pharbitis purpurea) | Post-emergence herbicidal activity against ECHCG in % (Echinochloa crus-galli) | Post-emergence herbicidal activity against VERPE in % (Veronica persica) | Post-emergence herbicidal activity against ABUTH in % (Abutilon theophrasti) | Post-emergence herbicidal activity against POLCO in % (Polygonum convolvulus)

C=CC1(C(=O)NC2COC(C(=O)OCc3ccc(OC)cc3)C2)CC(c2cc(F)cc(F)c2)=NO1 (mixture of isomers) [I-54]
90%: Post-emergence herbicidal activity against ALOMY in % (Alopecurus myosuroides) | Post-emergence herbicidal activity against AVEFA in % (Avena fatua) | Post-emergence herbicidal activity against HORMU in % (Hordeum murinum) | Post-emergence herbicidal activity against STEME in % (Stellaria media) | Post-emergence herbicidal activity against VIOTR in % (Viola tricolor) | Post-emergence herbicidal activity against SETVI in % (Setaria viridis) | Post-emergence herbicidal activity against LOLRI in % (Lolium rigidum) | Post-emergence herbicidal activity against PHBPU in % (Pharbitis purpurea) | Post-emergence herbicidal activity against ECHCG in % (Echinochloa crus-galli) | Post-emergence herbicidal activity against VERPE in % (Veronica persica) | Post-emergence herbicidal activity against ABUTH in % (Abutilon theophrasti) | Post-emergence herbicidal activity against POLCO in % (Polygonum convolvulus)
80%: Post-emergence herbicidal activity against AMARE in % (Amaranthus retroflexus)

CC(F)(F)C1(C(=O)NC2COC(C(=O)O)C2)CC(c2cc(F)cc(F)c2)=NO1 (stereo not shown) [I-50]
80%: Post-emergence herbicidal activity against AMARE in % (Amaranthus retroflexus)
90%: Post-emergence herbicidal activity against ALOMY in % (Alopecurus myosuroides) | Post-emergence herbicidal activity against STEME in % (Stellaria media) | Post-emergence herbicidal activity against VIOTR in % (Viola tricolor) | Post-emergence herbicidal activity against SETVI in % (Setaria viridis) | Post-emergence herbicidal activity against LOLRI in % (Lolium rigidum) | Post-emergence herbicidal activity against PHBPU in % (Pharbitis purpurea) | Post-emergence herbicidal activity against ECHCG in % (Echinochloa crus-galli) | Post-emergence herbicidal activity against VERPE in % (Veronica persica) | Post-emergence herbicidal activity against ABUTH in % (Abutilon theophrasti) | Post-emergence herbicidal activity against POLCO in % (Polygonum convolvulus)
100%: Post-emergence herbicidal activity against AVEFA in % (Avena fatua) | Post-emergence herbicidal activity against HORMU in % (Hordeum murinum)

CC(C)OC(=O)C1CC(NC(=O)C2(C(C)(F)F)CC(c3cc(F)cc(F)c3)=NO2)CO1 (stereo not shown) [I-51]
80%: Post-emergence herbicidal activity against AMARE in % (Amaranthus retroflexus) | Post-emergence herbicidal activity against ABUTH in % (Abutilon theophrasti)
100%: Post-emergence herbicidal activity against ALOMY in % (Alopecurus myosuroides) | Post-emergence herbicidal activity against AVEFA in % (Avena fatua)
90%: Post-emergence herbicidal activity against HORMU in % (Hordeum murinum) | Post-emergence herbicidal activity against STEME in % (Stellaria media) | Post-emergence herbicidal activity against VIOTR in % (Viola tricolor) | Post-emergence herbicidal activity against SETVI in % (Setaria viridis) | Post-emergence herbicidal activity against LOLRI in % (Lolium rigidum) | Post-emergence herbicidal activity against PHBPU in % (Pharbitis purpurea) | Post-emergence herbicidal activity against ECHCG in % (Echinochloa crus-galli) | Post-emergence herbicidal activity against VERPE in % (Veronica persica) | Post-emergence herbicidal activity against POLCO in % (Polygonum convolvulus)
